# Source: article PMC8149581 (Chemistry of Heterocyclic Compounds, 2021)
# Where two headings read alike, the source gives them in different places.
# Tests used:
# [1] = tested on: influenza A/Puerto Rico/8/34 (H1N1) virus; type: cell-based
# [2] = Simultaneous thermal analysis; type: physicochemical
# [3] = in vitro; conditions: dog
structure (smiles),measurement,setting,value
"Nc1cc(-c2nnn(C34CC5CC(CC(C5)C3)C4)n2)ccc1O [Compound 3i, 4-[2-(Adamantan-1-yl)-2 H -tetrazol-5-yl]-2-aminophenol]",Selectivity index (SI),[1],2
"O=[N+]([O-])c1cc(-c2nnn(C34CC5CC(CC(C5)C3)C4)n2)ccc1O [Compound 3g, 4-[(2-Adamantan-1-yl)-2 H -tetrazol-5-yl]-2-nitrophenol]",Temperature from which complete decomposition occurs,"[2]; argon flow, heating rate 10°C/min",≥ 250 °C
same,Temperature of release of molecular nitrogen (loss of weight),"[2]; argon flow, heating rate 10°C/min, strong exothermic effect",156.2 °C
same,Loss of mass at complete decomposition,[2]; starting with 250°C,33.6%
"CC(N)C12CC3CC(CC(C3)C1)C2 (stereo not drawn) [Rimantadine, reference compound]",Selectivity index (SI),[1],5
same,CC50,[3],60 ± 4 µg/mL
"Nc1c(Br)cc([N+](=O)[O-])cc1-c1nnn(C23CC4CC(CC(C4)C2)C3)n1 [Compound 3h, 2-[2-(Adamantan-1-yl)-2 H -tetrazol-5-yl]-6-bromo-4-nitroaniline]",Selectivity index (SI),[1],11
"Clc1ccc(-c2nnn(C34CC5CC(CC(C5)C3)C4)n2)cc1 [Compound 3d, 2-(Adamantan-1-yl)-5-(4-chlorophenyl)-2 H -tetrazole]",Selectivity index (SI),[1],2
"Ic1ccc(-c2nnn(C34CC5CC(CC(C5)C3)C4)n2)cc1 [Compound 3a, 2-(Adamantan-1-yl)-5-(4-iodophenyl)-2 H -tetrazole]",Selectivity index (SI),[1]; ratio of CC50 to IC50,1
